IC50 data for 22 molecules are collected here from patent US11524966B1 (Valo Early Discovery, Inc., priority 2017, dated 2022).

The target of the experiment is T1, USP25 (USP25-His6, Boston Biochem E-546) (Homo sapiens, UniProt Q9UHP3).
T1 construct: His6; purchased Boston Biochem E-546
T1 sequence (Q9UHP3 1-1055): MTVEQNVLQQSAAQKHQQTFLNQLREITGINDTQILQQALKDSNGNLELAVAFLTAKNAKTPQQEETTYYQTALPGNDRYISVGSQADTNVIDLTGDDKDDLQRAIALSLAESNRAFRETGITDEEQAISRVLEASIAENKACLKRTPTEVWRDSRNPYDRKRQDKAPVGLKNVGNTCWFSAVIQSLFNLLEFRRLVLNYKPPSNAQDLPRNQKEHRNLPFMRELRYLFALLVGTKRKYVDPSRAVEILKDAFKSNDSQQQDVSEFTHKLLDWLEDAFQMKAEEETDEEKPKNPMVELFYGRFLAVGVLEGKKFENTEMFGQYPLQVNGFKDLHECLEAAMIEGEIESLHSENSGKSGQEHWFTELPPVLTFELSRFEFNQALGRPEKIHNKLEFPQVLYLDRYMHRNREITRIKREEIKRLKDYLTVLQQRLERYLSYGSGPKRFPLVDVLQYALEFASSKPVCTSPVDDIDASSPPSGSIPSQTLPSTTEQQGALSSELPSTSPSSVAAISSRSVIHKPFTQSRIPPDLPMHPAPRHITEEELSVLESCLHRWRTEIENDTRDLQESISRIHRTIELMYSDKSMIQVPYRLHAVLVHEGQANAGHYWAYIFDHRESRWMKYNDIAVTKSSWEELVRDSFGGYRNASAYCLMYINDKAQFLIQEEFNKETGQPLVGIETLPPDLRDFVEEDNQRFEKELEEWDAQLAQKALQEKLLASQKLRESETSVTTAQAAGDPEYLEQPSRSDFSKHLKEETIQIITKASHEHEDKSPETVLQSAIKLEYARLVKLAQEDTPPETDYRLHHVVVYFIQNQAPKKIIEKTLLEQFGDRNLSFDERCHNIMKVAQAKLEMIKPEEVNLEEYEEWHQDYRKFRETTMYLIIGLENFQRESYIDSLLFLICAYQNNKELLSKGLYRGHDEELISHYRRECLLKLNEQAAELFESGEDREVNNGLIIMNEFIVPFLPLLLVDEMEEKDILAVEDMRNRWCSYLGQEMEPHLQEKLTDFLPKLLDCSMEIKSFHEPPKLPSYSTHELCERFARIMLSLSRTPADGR
Kind of experiment: Ubiquitin-Rhodamine 110 Assay for USP25 Activity, Example A-2. In kind it is biochemical. Conditions: Ubiquitin-Rhodamine 110 assay, Example A-2; read-out: USP25 A-2 IC50 range. In a few lines: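 Inhibition is quantified as IC50 by 4-parameter fit of fluorescence (485/535 nm) from Ub-Rh110 hydrolysis. Enzyme USP25-His6 at 75 pM with 30 min compound preincubation, then 25 nM substrate for 45 min at room temperature in pH 8.0 Tris buffer containing BME.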

For the molecule `Cc1ccc2c(N)c(C(=O)N[C@H]3COc4cc(N5C[C@@H]6CCN[C@@H]6C5)ccc4C3)sc2n1` [Example 304, N-[(3R)-7-[(3aS,6aS)-octahydropyrrolo[3,4-b]pyrrol-5-yl]-3,4-dihydro-2H-1-benzopyran-3-yl]-3-amino-6-methylthieno[2,3-b]pyridine-2-carboxamide], the IC50 lay in the range of 0.2 to 2 µM. For the molecule `Cc1ccc2c(N)c(C(=O)N[C@H]3COc4cc(N5C[C@H]6CCN[C@H]6C5)ccc4C3)sc2n1` [Example 305, N-[(3R)-7-[(3aR,6aR)-octahydropyrrolo[3,4-b]pyrrol-5-yl]-3,4-dihydro-2H-1-benzopyran-3-yl]-3-amino-6-methylthieno[2,3-b]pyridine-2-carboxamide], the IC50 is 0.05 to 0.2 µM. As to `Cc1ccc2c(N)c(C(=O)N[C@H]3COc4cc(N5CCC6(CNC6)C5)ccc4C3)sc2n1` [Example 306, 3-amino-N-[(3R)-7-{2,6-diazaspiro[3.4]octan-6-yl}-3,4-dihydro-2H-1-benzopyran-3-yl]-6-methylthieno[2,3-b]pyridine-2-carboxamide], the IC50 fell in the range of 0.2 to 2 µM. Consider `Cc1ccc2c(N)c(C(=O)N[C@H]3COc4cc(N5C[C@H](N)[C@]6(CCCO6)C5)ccc4C3)sc2n1` [Example 307, 3-amino-N-[(3R)-7-[(5S,9S)-9-amino-1-oxa-7-azaspiro[4.4]nonan-7-yl]-3,4-dihydro-2H-1-benzopyran-3-yl]-6-methylthieno[2,3-b]pyridine-2-carboxamide], for which the IC50 lay in the range of 0.2 to 2 µM. With `Cc1ccc2c(N)c(C(=O)N[C@H]3COc4cc(N5C[C@@H](N)[C@@]6(CCCO6)C5)ccc4C3)sc2n1` [Example 308, 3-amino-N-[(3R)-7-[(5R,9R)-9-amino-1-oxa-7-azaspiro[4.4]nonan-7-yl]-3,4-dihydro-2H-1-benzopyran-3-yl]-6-methylthieno[2,3-b]pyridine-2-carboxamide], the IC50 lay within 0.2 to 2 µM. With `Cc1ccc2c(N)c(C(=O)N[C@H]3COc4cc(N5C[C@@H](N)[C@]6(CCCO6)C5)ccc4C3)sc2n1` [Example 309, 3-amino-N-[(3R)-7-[(5S,9R)-9-amino-1-oxa-7-azaspiro[4.4]nonan-7-yl]-3,4-dihydro-2H-1-benzopyran-3-yl]-6-methylthieno[2,3-b]pyridine-2-carboxamide], the 50% inhibitory concentration (IC50) is 0.05 to 0.2 µM.

For the molecule `Cc1ccc2c(N)c(C(=O)N[C@H]3COc4cc(N5C[C@H](N)[C@@]6(CCCO6)C5)ccc4C3)sc2n1` [Example 310, 3-amino-N-[(3R)-7-[(5R,9S)-9-amino-1-oxa-7-azaspiro[4.4]nonan-7-yl]-3,4-dihydro-2H-1-benzopyran-3-yl]-6-methylthieno[2,3-b]pyridine-2-carboxamide], the IC50 was 0.2 to 2 µM. For `CN[C@H]1CN(c2ccc3c(n2)CC[C@H](NC(=O)c2sc4nc(C)ccc4c2N)C3)C[C@@H]1OC` [Example 311, 3-amino-N-[(6S)-2-[(3S,4S)-3-methoxy-4-(methylamino)pyrrolidin-1-yl]-5,6,7,8-tetrahydroquinolin-6-yl]-6-methylthieno[2,3-b]pyridine-2-carboxamide], the IC50 is > 2 µM. On to `CN[C@H]1CN(c2ccc3c(n2)CC[C@H](NC(=O)c2sc4nc(C)cc(C)c4c2N)C3)C[C@@H]1OC` [Example 312, 3-amino-N-[(6S)-2-[(3S,4S)-3-methoxy-4-(methylamino)pyrrolidin-1-yl]-5,6,7,8-tetrahydroquinolin-6-yl]-4,6-dimethylthieno[2,3-b]pyridine-2-carboxamide], for which the IC50 is > 2 µM. Regarding `CCOC[C@@H]1CN(c2ccc3c(c2)OC[C@H](NC(=O)c2sc4nc(C)ccc4c2N)C3)C[C@@H]1N` [Example 313, 3-amino-N-[(3R)-7-[(3R,4R)-3-amino-4-(ethoxymethyl)pyrrolidin-1-yl]-3,4-dihydro-2H-1-benzopyran-3-yl]-6-methylthieno[2,3-b]pyridine-2-carboxamide], the IC50 fell in the range of 0.2 to 2 µM. Take `CCOC[C@H]1CN(c2ccc3c(c2)OC[C@H](NC(=O)c2sc4nc(C)ccc4c2N)C3)C[C@H]1N` [Example 314, 3-amino-N-[(3R)-7-[(3S,4S)-3-amino-4-(ethoxymethyl)pyrrolidin-1-yl]-3,4-dihydro-2H-1-benzopyran-3-yl]-6-methylthieno[2,3-b]pyridine-2-carboxamide]: the IC50 lay in the range of 0.05 to 0.2 µM. For the molecule `CO[C@H]1CCN(c2ccc3c(c2)OC[C@H](NC(=O)c2sc4nc(C)cc(C)c4c2N)C3)C[C@@H]1N` [Example 317, 3-amino-N-[(3R)-7-[(3S,4S)-3-amino-4-methoxypiperidin-1-yl]-3,4-dihydro-2H-1-benzopyran-3-yl]-4,6-dimethylthieno[2,3-b]pyridine-2-carboxamide], the IC50 lay in the range of 0.2 to 2 µM. Consider `CO[C@@H]1CCN(c2ccc3c(c2)OC[C@H](NC(=O)c2sc4nc(C)cc(C)c4c2N)C3)C[C@H]1N` [Example 318, 3-amino-N-[(3R)-7-[(3R,4R)-3-amino-4-methoxypiperidin-1-yl]-3,4-dihydro-2H-1-benzopyran-3-yl]-4,6-dimethylthieno[2,3-b]pyridine-2-carboxamide], for which the IC50 was 0.2 to 2 µM. `Cc1cnc2c(N)c(C(=O)N[C@H]3CCc4cc(N5C[C@H](OC(C)C)[C@@H](N)C5)ccc4C3)sc2n1` [Example 319, 7-amino-N-[(2S)-6-[(3S,4S)-3-amino-4-(propan-2-yloxy)pyrrolidin-1-yl]-1,2,3,4-tetrahydronaphthalen-2-yl]-3-methylthieno[2,3-b]pyrazine-6-carboxamide]: the IC50 is > 2 µM.

Consider `Cc1ccc2c(N)c(C(=O)N[C@H]3CCc4nc(N5C[C@H](OC(C)C)[C@@H](N)C5)ccc4C3)sc2n1` [Example 320], for which the concentration for half-maximal inhibition (IC50) is > 2 µM. For the molecule `Cc1ccc2c(N)c(C(=O)N[C@H]3CCc4nc(N5C[C@H](N)[C@H](OC(C)C)C5)ccc4C3)sc2n1` [Example 321, 3-amino-N-[(6S)-2-[(3S,4R)-3-amino-4-(propan-2-yloxy)pyrrolidin-1-yl]-5,6,7,8-tetrahydroquinolin-6-yl]-6-methylthieno[2,3-b]pyridine-2-carboxamide], the IC50 was > 2 µM. Take `Cc1ccc2c(N)c(C(=O)N[C@H]3CCc4nc(N5C[C@@H](N)[C@@H](OC(C)C)C5)ccc4C3)sc2n1` [Example 322, 3-amino-N-[(6S)-2-[(3R,4S)-3-amino-4-(propan-2-yloxy)pyrrolidin-1-yl]-5,6,7,8-tetrahydroquinolin-6-yl]-6-methylthieno[2,3-b]pyridine-2-carboxamide]: the IC50 is > 2 µM. Regarding `CCO[C@H]1CN(c2ccc3c(c2)OC[C@H](NC(=O)c2sc4nc(C)cc(C)c4c2N)C3)C[C@H]1N` [Example 324, 3-amino-N-[(3R)-7-[(3R,4S)-3-amino-4-ethoxypyrrolidin-1-yl]-3,4-dihydro-2H-1-benzopyran-3-yl]-4,6-dimethylthieno[2,3-b]pyridine-2-carboxamide], the IC50 lay in the range of 0.2 to 2 µM. Regarding `CO[C@@]1(C)CN(c2ccc3c(n2)OC[C@H](NC(=O)c2sc4nc(C)ccc4c2N)C3)C[C@@H]1N` [Example 325, 3-amino-N-[(3R)-7-[(3S,4S)-4-amino-3-methoxy-3-methylpyrrolidin-1-yl]-2H,3H,4H-pyrano[2,3-b]pyridin-3-yl]-6-methylthieno[2,3-b]pyridine-2-carboxamide], the IC50 is > 2 µM. Turning to `CO[C@]1(C)CN(c2ccc3c(n2)OC[C@H](NC(=O)c2sc4nc(C)ccc4c2N)C3)C[C@H]1N` [Example 326, 3-amino-N-[(3R)-7-[(3R,4R)-4-amino-3-methoxy-3-methylpyrrolidin-1-yl]-2H,3H,4H-pyrano[2,3-b]pyridin-3-yl]-6-methylthieno[2,3-b]pyridine-2-carboxamide], the half-maximal inhibitory concentration (IC50) is > 2 µM.

Regarding `COC[C@H]1CN(c2ccc3c(n2)CC[C@H](NC(=O)c2sc4nc(C)ccc4c2N)C3)C[C@@H]1N` [Example 327, 3-amino-N-[(6S)-2-[(3R,4S)-3-amino-4-(methoxymethyl)pyrrolidin-1-yl]-5,6,7,8-tetrahydroquinolin-6-yl]-6-methylthieno[2,3-b]pyridine-2-carboxamide], the IC50 lay within 0.2 to 2 µM.

As for `COC[C@@H]1CN(c2ccc3c(n2)CC[C@H](NC(=O)c2sc4nc(C)ccc4c2N)C3)C[C@H]1N` [Example 328, 3-amino-N-[(6S)-2-[(3S,4R)-3-amino-4-(methoxymethyl)pyrrolidin-1-yl]-5,6,7,8-tetrahydroquinolin-6-yl]-6-methylthieno[2,3-b]pyridine-2-carboxamide], the IC50 was > 2 µM.
